In patent US6759385B1, “Methods to treat undesirable immune responses” (Regents of the University of Minnesota, priority 1997, dated 2004):
Several values for one entry are separate records, joined by “and”; a condition that tells them apart may be missing. Equal values may be shown once.

Columns and labels:
spleen CD4+ T-cells = assay: Lymphocyte proliferation assay, spleen CD4+ T-cells (Example IV); type: cell-based, mouse
Description: Lymphocyte proliferation assay. Five to seven days after the last TAChR immunization, CD4^+ T-cells (Bellone et al., 1991a) were purified from the pooled spleens of three to four mice that had received identical treatments. Irradiated (3000 rad) spleen cells from non-immunized mice were diluted as needed in RPMI-1640 (Gibco, Grand Island, N.Y.) supplemented with 10% heat inactivated fetal calf serum (Gibco), 50 μM 2-mercapto-ethanol, 1 mM L-glutamine, 10 mM HEPES, 1 mM sodium pyruvate, 100 U/ml penicillin and 100 μg/ml streptomycin (culture medium) and used as APC. The spleen CD4^+ T-cells (1×10^6/ml in culture medium, 100×1/well) were seeded in triplicate in 96 flat-bottom well plates containing 100×1 of 5×10^6/ml APC. One of the following Ag was added: 10 μg/ml PHA (Sigma); 5 or 10 μg/ml TAChR; 5 or 10 μg/ml of the individual epitope peptides. The concentrations of TAChR and epitope peptides are in the saturating range of the dose dependence curve (Bellone et al., 1991a), and yielded consistent results. Controls were triplicate wells containing CD4^+ cells and APC without any Ag, or with the control peptide (10 μg/ml). After 4 days the cells were labeled for 16 hours with ^3H-thymidine (1 μCi per well, specific activity 6.7 Ci/mmol, Dupont, Boston, Mass.) and harvested (Titertek, Skatron, Sterling, Va.). The ^3H-thymidine incorporation was measured by liquid scintillation, and represented the results as stimulation indexes (S.I.: the ratio between the cpm obtained in the presence of a given stimulus, and the average cpm obtained for non-stimulated control cultures).

serum anti-TAChR Ab = assay: Anti-TAChR IgG and IgG1 radioimmunoprecipitation assay (Example IV); type: in vivo, mouse
Description: Anti-TAChR Ab assay. Sera was obtained from each mouse after each clinical testing and at the end of the observation period (12 weeks after beginning of the TAChR immunization). The serum concentration of anti-TAChR IgG and IgGI was determined by radioimmunoprecipitation assay, using TAChR solubilized in Triton X-100 and labeled by the binding of ^125I-α-BTX (Bellone et al., 1991a). As a secondary Ab, either rabbit anti-mouse IgG produced, or goat anti-mouse IgG1 (Sigma, St. Louis, Mo.), was used. The anti-TAChR Ab concentration is expressed as μM precipitated ^125I-α-BTX binding sites.
Two types of experiments were carried out. In one of them the total anti-TAChR Ab in the sera of individual mice, obtained 8, 10 and 12 weeks after the first TAChR immunization, was determined. In the other, the anti-TAChR IgG1 concentration was determined, as well as the total anti-TAChR IgG concentration, in sera obtained at the end of the observation period. For this second assay pooled sera from five mice that had received identical treatments was used.

[1] = s.c. 200 μg, pooled sera of five mice

peptide Tα150-169: synthetic peptide corresponding to residues 150-169 of the TAChR α subunit (TYDGTKVSISPESDRPDLST; UniProt P02710 174-193, looked up, fragment)
response of CD4+ cells from sham-tolerized mice to the peptide (spleen CD4+ T-cells; TAChR-immunized B6 mice, 5 or 10 μg/ml): responded consistently
response to Tα150-169 of tolerized mice (spleen CD4+ T-cells; s.c. prevention protocol): never responded
reduction of anti-TAChR IgG1 (serum anti-TAChR Ab; 200 μg, p<0.008): very modest reduction
anti-TAChR Ab concentrations compared with sham-treated groups (serum anti-TAChR Ab; at 12 weeks, s.c. prevention protocol): significantly and substantially lower
IgG1 anti-TAChR (serum anti-TAChR Ab; [1]): 0.22 ± 0.005 µM and 0.27 ± 0.01 µM
Total IgG anti-TAChR (serum anti-TAChR Ab; [1]): 0.47 ± 0.01 µM and 0.28 ± 0.015 µM
